Assay results taken from patent US20250186408A1, “TREATMENT OF PHARMACORESISTANT EPILEPSY” (Katholieke Universiteit Leuven, priority 2021, published 2025).
Like-named read-outs stand apart in the source and are kept apart here.

Experiments:
PDE3A = target: T1, PDE3A (Homo sapiens, UniProt Q14432); test: Enzymatic PDE3A Inhibitor; type: biochemical; conditions: for IC50: read-out: RC50, result type IC50; for Emax: read-out: Max response
T1 construct: purchased Signal Chem
Description: Enzyme preparations were sourced from various vendors-AChE (R&D Systems), COX1 and COX2 (BPS Bioscience), MAOA (Sigma), PDE3A and PDE4D2 (Signal Chem). AChE: enzyme and test compound were pre-incubated for 15 min at RT before substrate addition. Acetylthiocholine and DTNB were added and incubated at RT for 30 min. Signal was detected by measuring absorbance at 405 nm. COX1 and COX2: enzyme stocks were diluted in assay buffer (40 mM Tris-HCl, 1×PBS, 0.5 mM Phenol, 0.01% Tween 20 and 10 nM Hematin) and allowed to equilibrate with compounds at RT for 30 min (binding incubation). Arachidonic acid (1.7 μM) and Ampliflu Red (2.5 μM) were prepared and dispended into a reaction plate. Plates were read immediately on a fluorimeter with the emission detection at 590 nm and excitation wavelength 544 nm. MAOA: enzyme and test compound were pre-incubated for 15 min at 37° C. before substrate addition. The reaction was initiated by addition of kynuramine and incubated at 37° C. for 30 min. The reaction was terminated by addition of NaOH. The amount of 4-hydroquinoline formed was determined through spectrofluorometric readout with the emission detection at 380 nm and excitation wavelength 310 nm. PDE3A and PDE4D2: enzyme and test compound were pre-incubated for 15 min at RT before substrate addition. cAMP substrate (at a concentration equal to EC80) was added and incubated at RT for 30 min. Enzyme reaction was terminated by addition of 9 mM IBMX. Signal was detected using the HitHunter® cAMP detection kit. Microplates were transferred to a PerkinElmer Envision™ instrument and read out as described for each assay. […] For enzyme activity assays, percentage inhibition was calculated using the following equation: […]

DAT = target: T2, DAT (Homo sapiens, UniProt Q01959); test: Transporter DAT Blocker; type: cell-based; conditions: for Emax: Transporter DAT Blocker, read-out: Max response
T2 construct: Eurofins DiscoverX Corporation 87-1003DR; host or cells: unnamed cell lines
T2 sequence (Q01959 whole entry): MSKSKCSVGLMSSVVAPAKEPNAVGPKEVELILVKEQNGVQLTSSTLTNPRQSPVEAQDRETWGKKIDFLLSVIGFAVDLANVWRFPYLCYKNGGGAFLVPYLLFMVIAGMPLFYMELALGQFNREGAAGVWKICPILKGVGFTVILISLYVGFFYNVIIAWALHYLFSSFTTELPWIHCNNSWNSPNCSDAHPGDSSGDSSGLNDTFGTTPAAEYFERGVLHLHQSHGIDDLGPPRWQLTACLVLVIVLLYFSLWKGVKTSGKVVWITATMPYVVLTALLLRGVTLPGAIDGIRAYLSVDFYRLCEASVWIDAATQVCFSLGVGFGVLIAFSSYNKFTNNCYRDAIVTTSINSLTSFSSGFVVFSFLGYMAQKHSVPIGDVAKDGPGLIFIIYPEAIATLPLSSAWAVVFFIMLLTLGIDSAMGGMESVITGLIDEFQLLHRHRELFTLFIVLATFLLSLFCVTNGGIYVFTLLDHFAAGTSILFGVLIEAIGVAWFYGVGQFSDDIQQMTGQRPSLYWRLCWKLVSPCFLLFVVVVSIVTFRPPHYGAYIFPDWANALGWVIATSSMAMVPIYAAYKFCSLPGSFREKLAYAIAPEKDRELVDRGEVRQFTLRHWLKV
Description: After cell plating and incubation, media was removed an 25 μL of 1× compound in 1×HBSS/0.1% BSA was added. Compounds were incubated with cells for 30 min at 37° C. After compound incubation, 25 μL of 1× dye loading buffer (1× dye, 1×HBSS/20 mM HEPES) was added to the wells. Cells were incubated for 30-60 min at 37° C. After incubation, microplates were transferred to a PerkinElmer Envision™ instrument for fluorescent signal detection. […] For blocker mode assays, percentage of inhibition was calculated using the following formula: […]

ADRB1 = ADRB1 (Homo sapiens, UniProt P08588); test: cAMP ADRB1 Agonist; type: cell-based; conditions: for Emax: read-out: Max response
Sequence of ADRB1 (P08588 whole entry): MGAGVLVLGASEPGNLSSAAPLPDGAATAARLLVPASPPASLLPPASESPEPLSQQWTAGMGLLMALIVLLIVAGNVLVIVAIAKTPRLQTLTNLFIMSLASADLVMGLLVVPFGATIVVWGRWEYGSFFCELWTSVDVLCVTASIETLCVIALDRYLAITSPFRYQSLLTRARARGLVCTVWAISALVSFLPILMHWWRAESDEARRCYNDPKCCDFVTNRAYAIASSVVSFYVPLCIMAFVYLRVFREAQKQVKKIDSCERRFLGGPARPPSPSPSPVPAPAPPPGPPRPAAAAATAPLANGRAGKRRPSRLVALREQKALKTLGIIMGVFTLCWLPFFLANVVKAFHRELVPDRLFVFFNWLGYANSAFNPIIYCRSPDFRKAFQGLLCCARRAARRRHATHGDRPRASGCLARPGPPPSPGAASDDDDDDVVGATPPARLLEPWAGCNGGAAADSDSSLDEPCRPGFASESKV
Description: cAMP Hunter cell lines were expanded from freezer stocks. […] For Gi agonist determination, cells were incubated with sample in the presence of EC80 forskolin to induce response. For both conditions, media was aspirated from cells and replaced with 15 μL 2:1 HBSS/10 mM HEPES:cAMP XS+ Ab reagent. […] 5 μL of 4× sample was added to cells and incubated at 37° C. or room temperature (RT) for 30 or 60 min. Final assay vehicle concentration was 1%. […] Media was aspirated from cells and replaced with 10 μL 1:1 HBSS/HEPES:cAMP XS+ Ab reagent. […] For Gi coupled GPCRs, EC80 forskolin was included. […] Compound activity was analyzed using CBIS data analysis suite (ChemInnovation, CA).

HTR2A = HTR2A (Homo sapiens, UniProt P28223); test: Calcium Flux HTR2A Antagonist; conditions: for Emax: read-out: Max response
Sequence of HTR2A (P28223 whole entry): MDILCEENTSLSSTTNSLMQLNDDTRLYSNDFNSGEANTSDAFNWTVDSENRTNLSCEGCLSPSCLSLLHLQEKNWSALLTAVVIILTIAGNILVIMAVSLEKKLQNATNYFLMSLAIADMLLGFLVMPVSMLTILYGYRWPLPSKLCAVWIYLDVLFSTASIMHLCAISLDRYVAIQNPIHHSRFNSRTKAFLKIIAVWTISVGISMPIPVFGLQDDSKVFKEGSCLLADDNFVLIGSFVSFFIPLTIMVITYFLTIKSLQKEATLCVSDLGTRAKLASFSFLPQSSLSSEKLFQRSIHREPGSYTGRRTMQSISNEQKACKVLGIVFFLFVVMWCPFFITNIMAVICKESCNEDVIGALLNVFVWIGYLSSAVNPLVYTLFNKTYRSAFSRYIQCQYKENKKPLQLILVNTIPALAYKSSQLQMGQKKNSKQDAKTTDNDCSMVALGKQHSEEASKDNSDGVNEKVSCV
Description: (§1) In vitro pharmacological profiling of compounds was done against 78 functional assays for 47 common off-targets (30) by Eurofins DiscoverX Corporation (Fremont, CA, USA) using their SAFETYscan E/IC50 ELECT service (Cat Ref 87-1003DR, Safety47 Panel Dose Response). […] Compounds were tested in a range of 10 concentrations, following a 3-fold serial dilution, starting from 10 μM. The assays were performed utilizing the PathHunter enzyme fragment complementation (EFC) technology, FLIPR®-based cellular screening assays, and KINOMEscan kinase binding assays.
(§2) Prior to testing, cells (10,000 cells/well) were expanded from freezer stocks and seeded into a total volume of 50 μL into black walled, clear-bottom, Poly-D-lysine coated 384-well microplates and incubated at 37° C. […] Assays were performed in 1× dye loading buffer consisting of 1× Dye (DiscoverX, Calcium No Wash^PLUS kit, Catalog No. 90-0091), 1× Additive A and 2.5 mM Probenecid in HBSS/20 mM HEPES. Probenecid was prepared fresh. Prior to testing, media was aspirated from cells and replaced with 25 μL dye loading buffer. Cells were incubated for 45 min at 37° C. and then 20 min at RT. For agonist determination, 25 μL of 2× compound in HBSS/20 mM HEPES was added using a FLIPR Tetra (MDS). For antagonist determination, cells were pre-incubated with sample followed by agonist challenge at the EC80 concentration. 25 μL of 2× sample was added and cells were incubated for 30 min at RT in the dark to equilibrate plate temperature. After incubation, antagonist determination was initiated by addition of 25 μL of 1× compound with 3×EC80 agonist using FLIPR. For both agonist and antagonist formats, activity was measure on a FLIPR Tetra (MDS). Calcium mobilization was monitored for 2 min with a 5 sec baseline read.
(§3) FLIPR read—Area under the curve, was calculated for the entire 2 min read. Compound activity was analysed using CBIS data analysis suite (ChemInnovation, CA).

KvLQT1/minK = KvLQT1/minK (Homo sapiens, UniProt P51787); test: Ion Channel KvLQT1/minK Opener; type: cell-based; conditions: for Emax: read-out: Max response
HTR2B = HTR2B (Homo sapiens, UniProt P41595); test: Calcium Flux HTR2B Agonist; conditions: for Emax: read-out: Max response
Sequence of HTR2B (P41595 whole entry): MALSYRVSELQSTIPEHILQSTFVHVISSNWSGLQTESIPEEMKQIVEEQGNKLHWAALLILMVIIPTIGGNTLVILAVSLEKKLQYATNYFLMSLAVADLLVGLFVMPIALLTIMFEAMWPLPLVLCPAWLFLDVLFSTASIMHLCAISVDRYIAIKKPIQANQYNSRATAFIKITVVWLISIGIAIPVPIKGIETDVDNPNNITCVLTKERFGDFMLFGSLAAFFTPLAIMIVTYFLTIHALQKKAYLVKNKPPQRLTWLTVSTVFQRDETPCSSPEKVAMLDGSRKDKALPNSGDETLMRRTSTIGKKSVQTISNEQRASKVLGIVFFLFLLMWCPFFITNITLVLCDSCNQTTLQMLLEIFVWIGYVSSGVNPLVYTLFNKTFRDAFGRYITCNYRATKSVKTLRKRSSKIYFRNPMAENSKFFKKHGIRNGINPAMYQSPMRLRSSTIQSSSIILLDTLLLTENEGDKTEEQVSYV
Description: as §1, §2, §3

OPRK1 = OPRK1 (Homo sapiens, UniProt P41145); test: cAMP OPRK1 Agonist; conditions: for Emax: read-out: Max response
Sequence of OPRK1 (P41145 whole entry): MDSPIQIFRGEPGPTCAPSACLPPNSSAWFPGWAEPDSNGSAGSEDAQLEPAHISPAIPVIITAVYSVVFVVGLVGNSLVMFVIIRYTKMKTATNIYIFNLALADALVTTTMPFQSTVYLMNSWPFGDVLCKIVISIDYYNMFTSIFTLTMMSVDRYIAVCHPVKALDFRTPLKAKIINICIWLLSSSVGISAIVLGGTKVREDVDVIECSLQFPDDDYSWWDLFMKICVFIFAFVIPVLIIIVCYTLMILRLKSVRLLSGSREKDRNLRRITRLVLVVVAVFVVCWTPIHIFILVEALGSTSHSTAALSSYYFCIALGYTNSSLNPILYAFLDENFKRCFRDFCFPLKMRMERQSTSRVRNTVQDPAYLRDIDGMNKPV
Description: (§4) In vitro pharmacological profiling of compounds was done against 78 functional assays for 47 common off-targets (30) by Eurofins DiscoverX Corporation (Fremont, CA, USA) using their SAFETYscan E/IC50 ELECT service (Cat Ref 87-1003DR, Safety47 Panel Dose Response). […] Compounds were tested in a range of 10 concentrations, following a 3-fold serial dilution, starting from 10 μM.
(§5) cAMP Hunter cell lines were expanded from freezer stocks. Prior to testing, cells were seeded in a total volume of 20 μL into white walled 384-well microplates and incubated at 37° C. cAMP modulation was determined using the DiscoverX HitHunter cAMP XS+ assay. For Gs agonist determination, cells were incubated with sample to induce response. For Gi agonist determination, cells were incubated with sample in the presence of EC80 forskolin to induce response. For both conditions, media was aspirated from cells and replaced with 15 μL 2:1 HBSS/10 mM HEPES:cAMP XS+ Ab reagent. Intermediate dilution of sample stocks was performed to generate 4× sample in assay buffer (containing 4×EC80 forskolin in the case of antagonist determination). 5 μL of 4× sample was added to cells and incubated at 37° C. or room temperature (RT) for 30 or 60 min. Final assay vehicle concentration was 1%. For antagonist determination, cells were pre-incubated with sample followed by agonist challenge at the EC80 concentration. Media was aspirated from cells and replaced with 10 μL 1:1 HBSS/HEPES:cAMP XS+ Ab reagent. 5 μL of 4× compound was added to the cells and incubated at 37° C. or RT for 30 min. 5 μL of 4×EC80 agonist was added to the cells and incubated at 37° C. or RT for 30 or 60 min. For Gi coupled GPCRs, EC80 forskolin was included. […] Microplates were read following signal generation with a PerkinElmer Envision™ instrument for chemiluminescent signal detection. Compound activity was analyzed using CBIS data analysis suite (ChemInnovation, CA).

HTR1B = HTR1B (Homo sapiens, UniProt P28222); test: cAMP HTR1B Agonist; conditions: for Emax: read-out: Max response
Sequence of HTR1B (P28222 whole entry): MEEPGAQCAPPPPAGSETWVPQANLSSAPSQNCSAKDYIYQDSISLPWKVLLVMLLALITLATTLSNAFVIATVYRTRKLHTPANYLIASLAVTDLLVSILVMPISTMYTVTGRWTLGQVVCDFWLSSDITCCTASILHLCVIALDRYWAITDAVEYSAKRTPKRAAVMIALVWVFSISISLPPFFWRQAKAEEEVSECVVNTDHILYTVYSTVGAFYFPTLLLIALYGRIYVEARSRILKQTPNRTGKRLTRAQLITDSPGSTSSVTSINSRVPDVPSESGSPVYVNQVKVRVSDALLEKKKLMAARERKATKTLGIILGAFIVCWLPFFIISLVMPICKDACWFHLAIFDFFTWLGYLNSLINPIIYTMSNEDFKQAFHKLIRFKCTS
Description: as §4, §5

47 common off-targets = test: Safety47 panel in vitro pharmacological profiling (overall); conditions: for potential off-targets (number): 78 functional assays, 47 off-targets, up to 10 μM
Description: The following assays were performed: (1) GPCR cAMP modulation, (2) calcium mobilization, (3) nuclear hormone receptor assays, (4) KINOMEscan binding assays, (5) ion channel assays, (6) transporter assays and (7) enzymatic assays. Compounds were tested in a range of 10 concentrations, following a 3-fold serial dilution, starting from 10 μM. The assays were performed utilizing the PathHunter enzyme fragment complementation (EFC) technology, FLIPR®-based cellular screening assays, and KINOMEscan kinase binding assays.

CHRM2 = target: T3, CHRM2 (Homo sapiens, UniProt P08172); test: cAMP CHRM2 Antagonist; conditions: for Emax: read-out: Max response
T3 sequence (P08172 1-466): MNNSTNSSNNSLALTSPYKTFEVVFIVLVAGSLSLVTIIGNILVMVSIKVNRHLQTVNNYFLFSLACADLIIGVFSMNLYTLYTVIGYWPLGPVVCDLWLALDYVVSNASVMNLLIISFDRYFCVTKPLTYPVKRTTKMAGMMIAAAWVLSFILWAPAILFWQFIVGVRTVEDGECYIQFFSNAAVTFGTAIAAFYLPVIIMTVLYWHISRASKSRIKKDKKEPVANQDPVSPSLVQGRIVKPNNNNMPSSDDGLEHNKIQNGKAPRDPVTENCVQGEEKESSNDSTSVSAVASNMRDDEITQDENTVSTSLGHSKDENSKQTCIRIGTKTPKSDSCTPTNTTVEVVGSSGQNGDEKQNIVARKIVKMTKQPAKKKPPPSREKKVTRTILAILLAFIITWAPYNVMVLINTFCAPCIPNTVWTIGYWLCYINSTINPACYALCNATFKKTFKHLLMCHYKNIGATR
Description: as §4
cAMP Hunter cell lines were expanded from freezer stocks. Prior to testing, cells were seeded in a total volume of 20 μL into white walled 384-well microplates and incubated at 37° C. cAMP modulation was determined using the DiscoverX HitHunter cAMP XS+ assay. For Gs agonist determination, cells were incubated with sample to induce response. For Gi agonist determination, cells were incubated with sample in the presence of EC80 forskolin to induce response. For both conditions, media was aspirated from cells and replaced with 15 μL 2:1 HBSS/10 mM HEPES:cAMP XS+ Ab reagent. Intermediate dilution of sample stocks was performed to generate 4× sample in assay buffer (containing 4×EC80 forskolin in the case of antagonist determination). 5 μL of 4× sample was added to cells and incubated at 37° C. or room temperature (RT) for 30 or 60 min. Final assay vehicle concentration was 1%. For antagonist determination, cells were pre-incubated with sample followed by agonist challenge at the EC80 concentration. Media was aspirated from cells and replaced with 10 μL 1:1 HBSS/HEPES:cAMP XS+ Ab reagent. 5 μL of 4× compound was added to the cells and incubated at 37° C. or RT for 30 min. 5 μL of 4×EC80 agonist was added to the cells and incubated at 37° C. or RT for 30 or 60 min. For Gi coupled GPCRs, EC80 forskolin was included. […] Microplates were read following signal generation with a PerkinElmer Envision™ instrument for chemiluminescent signal detection. Compound activity was analyzed using CBIS data analysis suite (ChemInnovation, CA). For Gs agonist mode assays, percentage activity was calculated using the following equation:

T1 sequence (Q14432 whole entry): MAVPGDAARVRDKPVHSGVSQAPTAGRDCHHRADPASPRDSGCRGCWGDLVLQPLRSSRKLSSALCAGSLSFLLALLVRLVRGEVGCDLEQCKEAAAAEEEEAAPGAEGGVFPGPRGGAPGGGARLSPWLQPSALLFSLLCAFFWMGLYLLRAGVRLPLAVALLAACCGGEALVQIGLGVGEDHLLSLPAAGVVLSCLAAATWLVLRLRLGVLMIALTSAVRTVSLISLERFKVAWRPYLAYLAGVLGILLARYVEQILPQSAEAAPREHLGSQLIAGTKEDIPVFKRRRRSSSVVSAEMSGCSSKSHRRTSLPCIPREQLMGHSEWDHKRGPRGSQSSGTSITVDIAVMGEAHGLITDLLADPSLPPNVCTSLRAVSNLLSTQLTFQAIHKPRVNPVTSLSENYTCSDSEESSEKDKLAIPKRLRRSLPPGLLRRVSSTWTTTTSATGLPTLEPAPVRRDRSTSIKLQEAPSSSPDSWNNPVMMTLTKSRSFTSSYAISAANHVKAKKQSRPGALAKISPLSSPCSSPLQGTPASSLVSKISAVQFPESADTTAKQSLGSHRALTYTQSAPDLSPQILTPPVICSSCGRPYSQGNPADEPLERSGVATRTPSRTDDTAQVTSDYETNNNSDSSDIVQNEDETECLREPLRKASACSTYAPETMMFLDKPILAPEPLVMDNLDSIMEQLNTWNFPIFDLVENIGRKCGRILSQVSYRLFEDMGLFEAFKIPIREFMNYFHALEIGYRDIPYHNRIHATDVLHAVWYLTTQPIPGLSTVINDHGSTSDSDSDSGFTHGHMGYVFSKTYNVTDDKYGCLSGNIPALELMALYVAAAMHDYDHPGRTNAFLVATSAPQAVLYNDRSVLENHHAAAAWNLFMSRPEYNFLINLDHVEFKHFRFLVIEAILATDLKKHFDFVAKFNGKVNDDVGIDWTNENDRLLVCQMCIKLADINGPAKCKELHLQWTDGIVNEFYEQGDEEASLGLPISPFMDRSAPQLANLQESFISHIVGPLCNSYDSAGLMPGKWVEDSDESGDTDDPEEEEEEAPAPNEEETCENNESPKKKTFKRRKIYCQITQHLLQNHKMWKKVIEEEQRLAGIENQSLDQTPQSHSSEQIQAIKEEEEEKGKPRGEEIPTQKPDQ

Row | SMILES | IC50 (PDE3A; Enzymatic PDE3A Inhibitor) [µM] | IC50 (DAT) [µM] | Emax (DAT) [%] | IC50 (HTR2A) [µM] | Emax (HTR2A) [%] | EC50 (HTR2B) [µM] | Emax (HTR2B) [%] | EC50 (OPRK1) [µM] | Emax (OPRK1) [%] | EC50 (HTR1B) [µM] | Emax (HTR1B) [%] | potential off-targets (number) (47 common off-targets) | IC50 (CHRM2) [µM] | Emax (CHRM2) [%] | other results
1 | CC(C)(C)c1ccc(C#CC(O)c2ccccc2)cc1 (racemic) [Compound 3.3, rac-3-(4-(tert-butyl)phenyl)-1-phenylprop-2-yn-1-ol] | > 10 | > 10 | 0 | > 10 | 0 | > 10 | 0 | > 10 | 0 | > 10 | 5.2 | 4 | 4.3 | 90.1 | Emax (PDE3A): 0.6%; EC50 (ADRB1): > 10 µM; Emax (ADRB1): 0.6%; EC50 (KvLQT1/minK): > 10 µM; Emax (KvLQT1/minK): 0%; IC50 (47 common off-targets; read-out: IC50 values at the potential off-targets, CHRM2, DRD2S, HTR1B, nAChR a4/b2): 4 to 8 µM
2 | Clc1cccc(C#Cc2n[nH]c3ncccc23)c1 [Compound 10.1, 3-((3-chlorophenyl)ethynyl)-1H-pyrazolo[3,4-b]pyridine] | > 10 | > 10 | 33.1 | > 10 | 0 | > 10 | 0 | > 10 | 5.4 | > 10 | 9.3 | none | > 10 | 0 | Emax (PDE3A; Enzymatic PDE3A Inhibitor): 0.1%; Emax (ADRB1; cAMP ADRB1 Agonist): 0%; EC50 (ADRB1; cAMP ADRB1 Agonist, read-out: RC50, result type EC50): > 10 µM; Emax (KvLQT1/minK; Ion Channel KvLQT1/minK Opener): 2%; EC50 (KvLQT1/minK; Ion Channel KvLQT1/minK Opener, read-out: RC50, result type EC50): > 10 µM
